What all share (assay type): cell-based, human
The test system of assay [1] is DLD-1 cells. The assay is described as follows: Apoptosis detection by flow cytometry, Annexin V & IP. The following applies: DLD-1, 7 hours treatment. As for the experimental part:
Cell death was analysed by flow cytometry using de Aposcreen Annexin V Apoptosis Kit (Southern Biotech) according to manufacturer procedures. Cells were seeded at 4×10^5 cells per well in six-well. Twenty-four hours later, cells were treated with the indicated compounds. Cells were rinsed twice in cold PBS and after removing it cells were resuspended in cold 1× binding buffer to a concentration from 1×10^6 to 1×10^7 cells/mL. 100 μl of these cells were collected in a flow cytometry tube and 10 μl of Annexin V were added. After gently vortexing, tubes were incubated for 15 minutes on ice, protected from light. Without washing, 380 μl of 1× binding buffer were added to each sample prior to 10 μl of propidium iodine. Cells were immediately analysed by flow cytometry.
The synergism observed in vitro was also analysed by flow cytometry using Annexin V & IP staining to distinguish between apoptosis and necrosis or late apoptosis. […] When DLD-1 cells are treated with TRAIL alone there is a 35% of apoptosis. In combination tumour cell death is amplified up to 50%. When DLD-1 are treated with RSM-932A (TCD-717) in combination with TRAIL there is a 55% increase in tumour cell death but mainly the necrotic or late apoptosis population because RSM-932A (TCD-717) has an effect that is faster than MN58. […]
A general note: Flow cytometry measures light scatter and fluorescence of single cells or particles in a stream.

The test system of assay [2] is DLD-1 colon cancer cells. Put plainly: QT-PCR validation of 5-FU metabolization pathway genes. Set-up: key: DR (Down-regulation); UR (Up-regulation). As for the experimental part:
(§1) 1 μg of RNA was used to generate cDNA using High-Capacity cDNA Archive Kit (Applied Biosystems), and quantitative real-time PCR was carried out in triplicate using the ABI PRISM 7700 Sequence Detector (Applied Biosystems). GAPDH and 18S ribosomal mRNA were amplified as internal controls. Probes used for amplification were from Applied Biosystems as Taqman Gene Expression Assays (ASAH1: HS00602774—M1 Taqman Probe, ASAH2: HS00184096_M1 Taqman Probe and ASAH3: HS00370322_M1 Taqman Probe, DUT: HS00798995_S1 Taqman Probe, TYMS: HS00426591_M1 Taqman Probe, UPP1: HS00427695—M1 Taqman Probe, RRM2: HS00357247_G1 Taqman Probe). The 2-^ΔΔCt method was used (Livak K J., Methods. 2001; 25:402-8) to calculate the relative expression of each gene.

Assay [3] concerns HT29 colon cancer cells. Described as above. On the set-up: key: DR (Down-regulation); UR (Up-regulation). The method, then: as §1
Assay [4] concerns SW62 colon cancer cells. Described as above. Set-up: key: DR (Down-regulation); UR (Up-regulation). As for the experimental part:
as §1

In assay [5] the test system is H460 cells. Put plainly: Cell proliferation assay (MTT). The method, then: All cell lines used in this study were maintained under standard conditions of temperature (37° C.), humidity (95%), and carbon dioxide (5%). Human primary bronchial epithelial cells, NHBE (BEC) (Cambrex, CC-2541) were grown in BEGM (Bronchial Epithelial cell growth media) BulletKit (Cambrex, CC-3170). Human primary mammary epithelial cells, HMEC (Clonetics, CC-2551) were grown in MEBM medium supplemented with a bullet kit (Clonetics, CC-3150). Epithelial non-small lung cancer cells H460 and H1299, and small cell lung cancer cell lines H510 and H82 were maintained in RPMI supplemented with 10% Fetal Bovine Serum (FBS) (Life Technologies, Grand Island, N.Y.).
Cells were seeded on 96-well plates (BD, Falcon, Bioscience, San Jose, Calif., USA) at a density of 6000 cells/well, and incubated for 24 h under standard conditions. Then, cells were treated with different concentrations of the ChoK inhibitors (quadruplicates of each concentration) and maintained for 72 hours. […] Absorbance is read at 595 nm in a VersaMax Microplate Reader (Molecular Devices, Sunnyvale, Calif., USA). For sensitization with acid ceramidase inhibitor, cells were pre-treated […] with the correspondent IC50 for NOE before treatment with ChoK inhibitors. NOE (N-Oleoyl ethanolamine) was obtained from Calbiochem (La Jolla, Calif., USA).
Thus, disruption in the levels of acid ceramidase may allow ChoK inhibitors to have a better effect in these cells. To verify this hypothesis, we used the previously characterized acid ceramidase inhibitor, N-Oleoylethanolamine (NOE) (Grijalvo S., Chem Phys Lipids. 2006; 144:69-84), to investigate if the inhibition of acid ceramidase sensitizes tumour cell lines to ChoK inhibitors. To that end, H460 cells were pre-treated with NOE for three hours to inhibit acid ceramidase.
H460 cells were pre-treated with these compounds for three hours to inhibit ceramidases. […] Furthermore, the combined use of ChoK inhibitors and acid ceramidase inhibitors provides a further stronger anticancer activity.

For the compound `CN(C)c1cc[n+](Cc2ccc(CCCCc3ccc(C[n+]4ccc(N(C)C)cc4)cc3)cc2)cc1` [MN58b, 1,4-(4-4′-Bis-((4-(dimethylamine)pyridinium-1-yl)methyl)diphenyl)butane dibromide], the apoptosis entry in assay [1] is “only a little increase in apoptosis”. Moreover, in assay [2], the TYM expression entry was “DR” and the UPP expression entry was “UR”. In assay [3], the DUT expression result is “DR”, the RRM expression entry is recorded as “DR” and the TYM expression result is “DR”. Besides, in assay [4], the RRM expression entry was “DR”, the TYM expression result is “DR” and the UPP expression entry is “UR”. In assay [5], the “figure in parentheses after IC50 48 h (not defined; fold vs primary cells)” value turned out to be 6, the “figure in parentheses after IC50 72 h (not defined; fold vs primary cells)” value is listed as 8 and the “figure in parentheses after IC50 144 h (not defined; fold vs primary cells)” value is on record as 3.

Source of the values: patent US20110256241A1, “METHODS AND COMPOSITIONS FOR THE TREATMENT OF CANCER” (TRASLATIONAL CANCER DRUGS PHARMA, S.L., priority 2008, published 2011).
